Results taken from publication PMC12668310, “High‐Throughput Synthesis and Screening of a Cyanimide Library Identifies Selective Inhibitors of ISG15‐Specific Protease mUSP18” (Angewandte Chemie (International Ed. in English), 2025).
Where two headings read alike, the source gives them in different places.

Experiments:
UCHL1 = molecular target: T1, UCHL1 (Homo sapiens, UniProt P09936); test: High-throughput screening, Ub-RhoMP, single dose 1.25 µM; type: biochemical; details: for inhibition at 1.25 µM: individual amine building block (plate NCN-5), read-out: BB %inhibition UCHL1; for %inhibition UCHL1: crude in-plate synthesized compound, 1.25 µM assuming full conversion
T1 construct: (1-223); made in house
T1 sequence (P09936 1-223): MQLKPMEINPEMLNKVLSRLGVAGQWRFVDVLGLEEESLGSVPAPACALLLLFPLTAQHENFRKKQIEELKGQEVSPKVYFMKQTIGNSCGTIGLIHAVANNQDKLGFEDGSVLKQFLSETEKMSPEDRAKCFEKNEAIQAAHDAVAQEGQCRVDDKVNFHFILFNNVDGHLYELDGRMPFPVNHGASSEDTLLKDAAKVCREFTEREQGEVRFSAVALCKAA
Procedure: (§1) Since the in‐plate synthesis was conducted in 1536‐well Echo plates, the compounds could readily be transferred from these plates into 1536‐well assay plates using acoustic liquid dispensing (Figure 2a) and subjected to HTS. We screened the whole 7536 compound library against a panel of twelve enzymes, including three DUBs from the UCH family, two DUBs from the OTU family, five DUBs from the USP family, plus ISG15 protease USP18, and SUMO protease SENP1. Each compound was tested at a single dose of 1.25 µM, assuming full conversion (10 mM in DMSO of the formed products) during the in‐plate synthesis, using the fluorogenic assay described above. […] The compounds are sorted by the amine building blocks (BB1‐16), and within each BB, sorted by carboxylic acid (CA1‐471), thereby providing a comprehensive and systematic overview of the overall inhibition by each BB and CA combination. Some interesting patterns can be obtained from this map. […] Indeed, BB10 is the privileged scaffold for UCHL1 as it originates from UCHL1 inhibitor 5 (Figure 1). […] On the other hand, OTUD1 and USP32 show a much higher hit rate, and this is even more pronounced for USP30 and ISG15 protease mUSP18, each showing many active compounds distributed over several BB's.
(§2) Purified recombinant enzymes used in this study
(§3) High-throughput screening
(§4) The screens were performed at room temperature in “flat bottom, non-treated, black […]
(§5) µM. The compounds (10 nL each) were transferred from the 1 mM daughter plates to the […]
(§6) Four wells containing DMSO
(§7) (10 nL) and four wells containing NEM (10 mM final concentration) were used in each plate […]
(§8) solution (1.33x final concentration) was added to each well, followed by incubation for 30 min.
(§9) Next, 2 µL of a substrate solution (4x final concentration) was added to each well (Ub-RhoMP[2]
(§10) After 1h or 2h incubation the
(§11) The percentage inhibition was calculated for each well using the […]
(§12) Where FIx is the fluorescence intensity of each well, FIpos is the average fluorescence intensity of the positive (NEM) control wells, and FIneg is the average fluorescence intensity of the negative (DMSO) control wells.

USP32 = molecular target: T2, USP32 (Homo sapiens, UniProt Q8NFA0); test: as above; type: biochemical; details: for inhibition at 1.25 µM: individual amine building block (plate NCN-5), read-out: BB %inhibition USP32; for %inhibition USP32: crude in-plate synthesized compound, 1.25 µM assuming full conversion
T2 construct: (1-1604); His-tag (N); made in house
T2 sequence (Q8NFA0 whole entry): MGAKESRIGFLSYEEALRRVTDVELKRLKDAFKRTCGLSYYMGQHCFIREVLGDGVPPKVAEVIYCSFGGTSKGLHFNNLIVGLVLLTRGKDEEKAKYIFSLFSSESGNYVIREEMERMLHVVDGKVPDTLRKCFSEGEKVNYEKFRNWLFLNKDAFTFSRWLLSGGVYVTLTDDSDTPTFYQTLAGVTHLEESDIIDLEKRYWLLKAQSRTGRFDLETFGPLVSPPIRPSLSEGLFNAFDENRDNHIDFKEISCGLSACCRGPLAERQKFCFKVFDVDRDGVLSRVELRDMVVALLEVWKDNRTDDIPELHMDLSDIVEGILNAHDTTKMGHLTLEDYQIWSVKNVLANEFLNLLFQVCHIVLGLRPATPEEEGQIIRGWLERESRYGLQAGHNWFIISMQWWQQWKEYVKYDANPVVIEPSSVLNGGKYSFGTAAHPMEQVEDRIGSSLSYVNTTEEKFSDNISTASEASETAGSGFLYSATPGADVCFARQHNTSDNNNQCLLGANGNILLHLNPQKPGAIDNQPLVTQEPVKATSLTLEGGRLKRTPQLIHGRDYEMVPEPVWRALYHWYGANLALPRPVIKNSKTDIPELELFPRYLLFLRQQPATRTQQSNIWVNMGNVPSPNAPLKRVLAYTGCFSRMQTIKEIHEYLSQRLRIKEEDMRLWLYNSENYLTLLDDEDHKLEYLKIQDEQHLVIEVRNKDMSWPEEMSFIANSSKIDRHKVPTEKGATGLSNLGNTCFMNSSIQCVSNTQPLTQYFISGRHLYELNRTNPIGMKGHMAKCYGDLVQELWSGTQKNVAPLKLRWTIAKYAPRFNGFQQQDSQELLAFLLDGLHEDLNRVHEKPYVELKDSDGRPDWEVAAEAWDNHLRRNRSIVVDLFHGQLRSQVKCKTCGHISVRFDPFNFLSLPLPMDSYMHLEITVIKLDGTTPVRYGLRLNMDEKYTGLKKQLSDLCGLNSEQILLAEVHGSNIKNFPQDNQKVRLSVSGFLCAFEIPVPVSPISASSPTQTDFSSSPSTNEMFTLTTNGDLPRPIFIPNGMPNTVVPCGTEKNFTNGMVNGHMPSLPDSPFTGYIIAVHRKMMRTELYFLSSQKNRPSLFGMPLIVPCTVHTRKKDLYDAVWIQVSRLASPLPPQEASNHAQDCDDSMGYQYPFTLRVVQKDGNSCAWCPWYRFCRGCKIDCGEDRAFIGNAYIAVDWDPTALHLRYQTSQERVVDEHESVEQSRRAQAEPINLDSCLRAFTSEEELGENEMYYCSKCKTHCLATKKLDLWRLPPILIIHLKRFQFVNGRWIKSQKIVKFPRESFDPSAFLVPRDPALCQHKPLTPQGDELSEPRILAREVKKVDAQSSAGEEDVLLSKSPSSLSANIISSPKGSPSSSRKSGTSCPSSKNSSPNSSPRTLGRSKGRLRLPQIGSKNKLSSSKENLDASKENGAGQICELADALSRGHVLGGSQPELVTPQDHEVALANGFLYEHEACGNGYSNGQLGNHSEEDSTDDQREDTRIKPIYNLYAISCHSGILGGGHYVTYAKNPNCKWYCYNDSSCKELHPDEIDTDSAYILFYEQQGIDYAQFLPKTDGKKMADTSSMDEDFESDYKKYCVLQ
Procedure: as §1, §2, §3, §4, §5, §6, §7, §8, §9, §10, §11, §12

UCHL3 = molecular target: T3, UCHL3 (Homo sapiens, UniProt P15374); test: as above; type: biochemical; details: for inhibition at 1.25 µM: individual amine building block (plate NCN-5), read-out: BB %inhibition UCHL3; for %inhibition UCHL3: crude in-plate synthesized compound, 1.25 µM assuming full conversion
T3 construct: (1-230); made in house
T3 sequence (P15374 1-230): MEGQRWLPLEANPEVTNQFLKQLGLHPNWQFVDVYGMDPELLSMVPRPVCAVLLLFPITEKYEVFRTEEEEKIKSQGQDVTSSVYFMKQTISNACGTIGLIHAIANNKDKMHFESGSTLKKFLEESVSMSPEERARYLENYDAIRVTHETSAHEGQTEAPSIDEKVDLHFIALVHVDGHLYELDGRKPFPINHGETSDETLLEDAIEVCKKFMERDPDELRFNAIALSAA
Procedure: as §1, §2, §3, §4, §5, §6, §7, §8, §9, §10, §11, §12

OTUB2 = molecular target: T4, OTUB2 (Homo sapiens, UniProt Q96DC9); test: as above; type: biochemical; design: (1-234); His6 (cleaved yes); made in house; details: individual amine building block (plate NCN-5); read-out: BB %inhibition OTUB2
T4 sequence (Q96DC9 1-234): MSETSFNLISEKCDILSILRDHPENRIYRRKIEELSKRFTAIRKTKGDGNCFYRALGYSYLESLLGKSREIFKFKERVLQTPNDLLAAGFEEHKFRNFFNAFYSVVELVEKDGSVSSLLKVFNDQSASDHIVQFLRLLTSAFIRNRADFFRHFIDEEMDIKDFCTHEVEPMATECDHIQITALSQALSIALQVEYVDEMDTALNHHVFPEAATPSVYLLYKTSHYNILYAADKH
Procedure: as §1, §2, §3, §4, §5, §6, §7, §8, §9, §10, §11, §12

USP16 = USP16 (Homo sapiens, UniProt Q9Y5T5); test: as above; type: biochemical; design: (22-823); His-tag (N); made in house; details: for BB %inhibition USP16: individual amine building block (plate NCN-5); for %inhibition USP16: crude in-plate synthesized compound, 1.25 µM assuming full conversion
Sequence of USP16 (Q9Y5T5 22-823): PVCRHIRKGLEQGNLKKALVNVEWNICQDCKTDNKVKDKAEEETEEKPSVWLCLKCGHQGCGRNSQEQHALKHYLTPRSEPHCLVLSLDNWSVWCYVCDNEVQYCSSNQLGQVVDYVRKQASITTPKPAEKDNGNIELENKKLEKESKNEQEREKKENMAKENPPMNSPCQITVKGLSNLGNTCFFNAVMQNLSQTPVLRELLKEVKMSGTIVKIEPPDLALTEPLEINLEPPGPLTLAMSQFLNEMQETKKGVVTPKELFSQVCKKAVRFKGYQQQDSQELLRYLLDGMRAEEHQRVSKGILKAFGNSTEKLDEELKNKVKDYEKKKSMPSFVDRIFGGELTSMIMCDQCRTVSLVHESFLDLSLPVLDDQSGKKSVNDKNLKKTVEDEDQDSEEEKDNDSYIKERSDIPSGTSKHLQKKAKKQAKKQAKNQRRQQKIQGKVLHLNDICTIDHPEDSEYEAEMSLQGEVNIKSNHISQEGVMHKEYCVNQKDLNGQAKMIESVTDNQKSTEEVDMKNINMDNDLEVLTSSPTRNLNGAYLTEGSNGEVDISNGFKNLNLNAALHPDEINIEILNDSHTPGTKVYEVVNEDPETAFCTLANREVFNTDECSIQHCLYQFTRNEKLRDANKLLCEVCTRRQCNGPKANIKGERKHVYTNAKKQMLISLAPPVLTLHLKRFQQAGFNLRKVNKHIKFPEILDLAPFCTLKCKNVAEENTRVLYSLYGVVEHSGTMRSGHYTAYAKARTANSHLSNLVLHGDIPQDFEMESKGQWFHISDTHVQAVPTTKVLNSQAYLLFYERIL
Procedure: as §1, §2, §3, §4, §5, §6, §7, §8, §9, §10, §11, §12

mUSP18 = molecular target: T5, mUSP18 (Mus musculus, UniProt Q9WTV6); test: High-throughput screening, ISG15ct-RhoMP, single dose 1.25 µM; type: biochemical, murine
T5 construct: (46-368); His-tag (N); made in house
T5 sequence (Q9WTV6 46-368): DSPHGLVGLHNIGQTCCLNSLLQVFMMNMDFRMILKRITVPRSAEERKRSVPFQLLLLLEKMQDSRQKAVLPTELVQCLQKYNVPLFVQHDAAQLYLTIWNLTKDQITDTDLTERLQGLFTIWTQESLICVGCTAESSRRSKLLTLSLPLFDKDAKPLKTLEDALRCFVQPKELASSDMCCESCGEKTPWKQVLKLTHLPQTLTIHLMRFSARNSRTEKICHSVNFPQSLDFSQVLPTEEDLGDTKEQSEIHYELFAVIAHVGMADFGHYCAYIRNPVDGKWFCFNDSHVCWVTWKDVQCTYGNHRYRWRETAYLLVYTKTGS

[1] = individual amine building block (plate NCN-5), read-out: BB %inhibition mUSP18
[2] = crude in-plate synthesized compound, 1.25 µM assuming full conversion, read-out: %inhibition mUSP18

SMILES | inhibition at 1.25 µM (UCHL1) | inhibition at 1.25 µM (USP32) | inhibition at 1.25 µM (UCHL3) | inhibition at 1.25 µM (OTUB2) | BB %inhibition USP16 (USP16) | inhibition at 1.25 µM (mUSP18; [1]) | %inhibition UCHL1 (UCHL1) | %inhibition USP32 (USP32) | %inhibition UCHL3 (UCHL3) | %inhibition USP16 (USP16) | inhibition at 1.25 µM (mUSP18; [2])
N#CN1CC[C@H](C(=O)Nc2nc3c(s2)CNCC3)C1 [BB10] | ~35% | 1.5% | -5.1% | -5.1% | -2.4% | 0.154% | – | – | – | – | –
N#CN1C[C@H]2C[C@H](N)C[C@H]2C1 [BB7] | 0.7% | 2.8% | -7.4% | -3.8% | -1.2% | -3.9% | – | – | – | – | –
N#CN1CCC2(CCNC2)C1 (centres unmarked) [BB14] | 1% | 0.344% | 8.6% | 6.4% | 5.9% | -1% | – | – | – | – | –
N#CN1CC[C@@H](NC(=O)CCN(Cc2ccccc2)S(=O)(=O)c2c(Cl)cccc2Cl)C1 [BB01CA93] | – | – | – | – | – | – | 9.7% | 75.0% | 16.3% | 20.5% | 74.1%
N#CN1CCC(N)CC1 [BB2] | 4% | 9% | 3.9% | 0.9% | 8.1% | 4.3% | – | – | – | – | –
N#CN1CCC(n2cc(N)cn2)CC1 [BB16] | 1.3% | -6.1% | 2.3% | 0.0345% | -0.846% | -4.3% | – | – | – | – | –
N#CN1CC[C@@H](N)C1 [BB1] | 2.6% | 9.5% | 5.9% | 3.3% | 7.2% | 6.8% | – | – | – | – | –
N#CN1CC[C@@H](NC(=O)c2ncoc2-c2cccs2)C1 [BB01CA94] | – | – | – | – | – | – | 8.0% | 15.3% | 16.0% | 11.4% | 24.1%
N#CN1CCC[C@@H](N)C1 [BB4] | 3.6% | 4.7% | 2% | 2.7% | 5.0% | 3.9% | – | – | – | – | –
N#CN1CC[C@@H](NC(=O)c2ccc(CN)cc2)C1 [BB9] | -0.3% | 2.8% | -2.3% | -2% | -1.3% | 2% | – | – | – | – | –
Cc1cc(C(=O)N[C@H]2C[C@@H]3CN(C#N)C[C@@H]3C2)ccc1Br [BB07CA28] | – | – | – | – | – | – | – | – | – | – | 95%
N#CN1CC[C@@H](NC(=O)c2nc(N3CCCC3)ncc2Cl)C1 [BB01CA90] | – | – | – | – | – | – | 15.1% | 19.4% | 19.3% | 11.4% | 27.1%
N#CN1C[C@@H]2C[C@H]1CN2 [BB12] | -1.2% | -1.2% | -4.6% | -6% | -5.0% | -0.7% | – | – | – | – | –
N#CN1CC[C@@H](NC(=O)Cc2csc(-c3cnccn3)n2)C1 [BB01CA92] | – | – | – | – | – | – | 8.8% | 21.1% | 17.1% | 15.0% | 24.6%
N#CN1CCC[C@H](N)C1 [BB8] | 1% | 1.3% | -2.2% | -1.3% | -0.5% | -1.5% | – | – | – | – | –
N#CN1C[C@H](N)[C@@H](O)C1 [BB13] | 0.8% | 1.1% | 8% | 5.6% | 4.4% | -0.9% | – | – | – | – | –
N#CN1CC[C@@H](NC(=O)C(Cc2c[nH]cn2)NS(=O)(=O)c2ccc(Cl)cc2)C1 (some centres unmarked) [BB01CA91] | – | – | – | – | – | – | 11.2% | 22.5% | 16.3% | 7.7% | 13.4%
N#CN1CC[C@H](CN)C1 [BB11] | -2.6% | -1.5% | -5.7% | -6.8% | -4.8% | -3.8% | – | – | – | – | –
N#CN1CC[C@H](N)C1 [BB3] | 1.1% | 8.4% | 0.6% | 0.556% | 5.8% | 3.1% | – | – | – | – | –
N#CN1CC(N)C1 [BB5] | 3.8% | 5.3% | -0.9% | -1.4% | 1.2% | -0.216% | – | – | – | – | –
N#CN1C[C@H]2C[C@@H](N)C[C@H]2C1 [BB6] | 0.4% | 6% | -4.7% | -1.5% | 0.3% | -0.535% | – | – | – | – | –
N#CN1C[C@@H](F)[C@@H](N)C1 [BB15] | 1% | -3.1% | 1.4% | -0.269% | -1.1% | -5.8% | – | – | – | – | –
